Measured values: US12371424B2, “Processes for the preparation of furazanobenzimidazoles and crystalline forms thereof” (Glioblastoma Foundation, Inc., priority 2017, dated 2025)

Tests used:
[1] = Polymorphic stability (XRPD, climate chamber storage)
Procedure: XRPD patterns were obtained using a high-throughput XRPD set-up. The plates were mounted on a Bruker GADDS diffractometer equipped with a Hi-Star area detector. The XRPD platform was calibrated using Silver Behenate for the long d-spacings and Corundum for the short d-spacings. Data collection was carried out at room temperature using monochromatic CuKo radiation in the 20 region between 1.5° and 41.5°, which is the most distinctive part of the XRPD pattern. The diffraction pattern of each well was collected in two 20 ranges (1.5° 20≤21.5° for the first frame, and 19.5°% 20≤41.5° for the second) with an exposure time of 90 s for each frame. No background subtraction or curve smoothing was applied to the XRPD patterns. The carrier material used during XRPD analysis was transparent to X-rays and contributed only slightly to the background.
For variable humidity (VH) and variable temperature (VT) experiments a ANSYCO HT chamber was used, installed within a D8 Advance system diffractometer (Bruker) designed with Bragg-Brentano geometry and equipped with LynxEye solid state detector. The radiation used for collecting the data was CuKαl (2=1.54056 Å) monochromatized by germanium crystal. The material was placed on a fixed sample holder that was mounted inside the chamber.
VH-XRPD: The humidity was applied locally and varied from 10 to 70% (dew point). […]

[2] = Dynamic vapor sorption (DVS) moisture sorption isotherm; format: physicochemical; conditions: for water absorption up to 85% RH / water absorption up to 95% RH: DVS, ca. 25° C.
Procedure: Differences in hygroscopicity of the various forms of a solid material provided a measure of their relative stability at increasing relative humidity. Moisture sorption isotherms were obtained using a DVS-1 system from Surface Measurement Systems (London, UK). The relative humidity was varied during sorption-desorption (see specific experiment) at a constant temperature of ca. 25° C. At the end of the DVS experiment the sample was measured by XRPD.
The dynamic vapor sorption (DVS) analysis for the crystalline Form E of the dichloride salt of the compound of formula I is depicted in FIG. 11.
See Example 5f for experimental details. The DVS analysis for the crystalline System A+M of the dichloride salt of the compound of formula I is depicted in FIG. 35.

[3] = Thermodynamic pH-dependent solubility; conditions: room temperature, 24 h
Procedure: The thermodynamic pH-dependent solubility was performed in unbuffered water as well as using standard Merck Titriplex® buffers (Merck Titrisol® buffer pH 3 with citrate and HCl; Merck Titrisol® buffer pH 4 with citrate and HCl; Merck Titrisol® buffer pH 5 with citrate and NaOH; Merck Titrisol® buffer pH 6 with citrate and NaOH; Merck Titrisol® buffer pH 7 with phosphate; for buffering at pH 4.5 a 50/50 mixture of buffers for pH 4 and 5 was used; for buffering at pH 5.5 a 50/50 mixture of buffers for pH 5 and 6 was used).
For each experiment, an 8 mL screw cap vial was prepared with the polymorphic material, the buffer solvent according to the target pH and a magnetic stirring bar. Each pH data point was determined in triplicate with a target pH of 3, 4, 4.5, 5, 5.5 and 7. The pH was measured (Fisherbrand pH meter Hydrus 400, a three point calibration was performed prior to measurement) and adjusted with 1M NaOH solution. […] After 24 h the pH was monitored and the slurries were centrifuged for 10 min at 3000 rpm to separate the solids and liquids and filtered (0.45 micron disk filter). […] Concentrations of the compound of formula I were determined by High Performance Liquid Chromatography with Diode Array Detection analysis (HPLC-DAD). […]
HPLC testing was performed on Agilent 1100 with DAD detector at 280 nm wavelength. A LOQ of 11 μg/mL was determined, linearity is given up to ca. 0.7 mg/mL. […]

| Compound | polymorphic form after 2 days at 40° C./75% RH ([1]; wet solid treated 2 days at 40° C./75% RH) | water absorption up to 85% RH [2] | water absorption up to 95% RH [2] | hysteresis in DVS ([2]; isothermic (24.9° C.) DVS, 0→95→0% RH) | maximum mass change ([2]; isothermic (24.9° C.) DVS, 0→95→0% RH in steps of 10% RH, at 95% RH) [%] | solubility (in words) [3] | polymorphic stability (in words) ([1]; listed as System A+X) |
| --- | --- | --- | --- | --- | --- | --- | --- |
| N#CCCNc1nonc1-c1nc2ccccc2n1CC(=O)c1ccc(NC(=O)[C@@H](N)CCCCN)cc1 [Form E] | Form E | 1% | ca. 4% | – | – | – | – |
| N#CCCNc1nonc1-c1nc2ccccc2n1CC(=O)c1ccc(NC(=O)[C@@H](N)CCCCN)cc1 [Mixture A1+M4] | – | – | – | No hysteresis was observed | 34 | – | – |
| N#CCCNc1nonc1-c1nc2ccccc2n1CC(=O)c1ccc(NC(=O)[C@@H](N)CCCCN)cc1 [System A+M] | – | ca. 22% | < 34% | – | – | good solubility | polymorphically stable |
